One molecule from PubChem BioAssay AID1671331 can be followed below.

The target in the assay is Serine/threonine-protein kinase Nek6 (Homo sapiens) (UniProt Q9HC98). Briefly: inhibition of NEK6 serine/threonine kinase activity – biochemical, Z'-LYTE FRET, direct format, recombinant human, dose response (AID 1671331).

The term IC50 denotes the concentration that gives 50% inhibition.

Serine/threonine-protein kinase Nek6 (Homo sapiens), sequence (Q9HC98 whole entry, looked up): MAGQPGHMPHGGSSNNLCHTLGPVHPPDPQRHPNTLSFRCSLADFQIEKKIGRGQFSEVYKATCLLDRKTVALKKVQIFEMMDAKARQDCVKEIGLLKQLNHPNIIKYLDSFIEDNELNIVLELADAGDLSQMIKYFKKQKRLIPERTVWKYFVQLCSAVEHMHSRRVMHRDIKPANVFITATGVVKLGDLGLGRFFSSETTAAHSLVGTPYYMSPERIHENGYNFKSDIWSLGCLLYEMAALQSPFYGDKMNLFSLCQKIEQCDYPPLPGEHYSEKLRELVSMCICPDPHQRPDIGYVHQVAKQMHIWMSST

`CN1C(=O)C2(Cc3cn(C45CC67SSC(CO)(C(=O)N6C4Nc4ccccc45)N(C)C7=O)c4ccccc34)SSC1(CO)C(=O)N2C` (stereo unspecified): the IC50 is 59 nM.
